# Target: T1, hROMK1 (Kir1.1) (Homo sapiens, UniProt P48048)
# T1 construct: expressed in transfected cells
# T1 sequence (P48048 1-391): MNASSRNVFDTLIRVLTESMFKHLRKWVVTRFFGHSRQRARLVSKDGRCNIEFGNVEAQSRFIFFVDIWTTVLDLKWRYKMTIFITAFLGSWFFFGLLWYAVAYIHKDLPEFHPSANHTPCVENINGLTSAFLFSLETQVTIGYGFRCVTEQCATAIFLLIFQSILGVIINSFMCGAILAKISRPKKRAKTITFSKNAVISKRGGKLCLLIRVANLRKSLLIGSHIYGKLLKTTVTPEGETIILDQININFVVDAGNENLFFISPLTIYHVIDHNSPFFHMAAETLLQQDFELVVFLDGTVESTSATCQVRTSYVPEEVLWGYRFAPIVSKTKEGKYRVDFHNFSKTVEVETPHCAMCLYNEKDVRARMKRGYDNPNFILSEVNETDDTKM
# Test: 86Rb+ Efflux Assay
# Assay type: cell-based
# Settings: CHO-DHFR- cells stably expressing hROMK1; 35 min incubation
# Procedure: Several assays may be used to measure functional inhibition of the ROMK channel by compounds of the instant invention. One assay that was used to test the activity of compounds in the Examples is the functional ^86Rb^+ efflux assay described below, that measures the ability of ROMK to permeate ^86Rb^+, in the absence or presence of test compound. Under control conditions, cells loaded with ^86Rb^+ and incubated in Rb^+-free medium display a time-dependent efflux of the isotope, the rate of which depends on number of functional channels. When cells are incubated in the presence of a channel inhibitor, efflux of ^86Rb^+ is prevented in a concentration-dependent manner, and IC50 values of inhibition by compounds can be accurately determined. This assay has been established with cell lines expressing either human, rat or dog ROMK channels, and can operate in 96- or 384-well format. Importantly, the human, rat, and dog ^86Rb^+ efflux assays can be carried out in the presence of up to 100% serum allowing, therefore, an accurate estimation of the effect of protein binding on the inhibitory activity of compounds of interest. Another ROMK functional assay used to test the activity of compounds in the Examples (described below) makes use of the ability of thallium to permeate through open ROMK channels and increase the fluorescence of a dye previously loaded into the cells. Under control conditions, cells loaded with dye and exposed to thallium-containing medium display a time-dependent increase in fluorescence, the rate of which depends on number of functional channels. When cells are incubated in the presence of a channel inhibitor, the increase in fluorescence is attenuated in a concentration-dependent manner, and IC50 values of inhibition by compounds can be accurately determined. This assay has been established with cell lines expressing either human, or rat ROMK channels, and operates in 384-well format.
# CHO-DHFR-cells stably expressing hROMK1 (Kir1.1) are grown at 37° C. in a 10% CO2 humidified incubator in Iscove's Modified Dulbecco's Medium (Gibco 12440) supplemented with HT Supplement, Penicillin/Streptomycin/Glutamine, G418 (500 μg/ml) and 10% FBS. Cells are seeded in Sterile and Tissue Culture Treated Packard CulturPlate White Opaque Microplates at a concentration of 5.0E5-7.0E5 cells/ml-PerkinElmer 6005680 (96-well); Corning 3707 (384 well) in complete media containing 1.5 μCi/ml Rubidium-86. Cells are incubated in 37° C.-10% CO2 incubator overnight. On the day of the experiment, the media is removed and cells are washed with low K assay buffer. ^86Rb^+ efflux is initiated after addition of assay buffer±test compound followed by 35 min incubation at room temperature. ROMK-sensitive component of efflux is defined in the presence of 10 mM BaCl2. Assay buffer is removed and transferred to a plate and cells are solubilized in the presence of SDS. Radioactivity associated with assay and cell plate is determined.
# • 1. Remove cell media and wash cells with low K assay buffer (126.9 mM NaCl, 4.6 mM KCl, 2 mM CaCl2, 1 mM MgCl2, 10 mM Hepes/NaOH; pH 7.4) • 200 μl for 96-well plate; 70 μl for 384-well plate • 2. Add assay buffer (121.5 mM NaCl, 10 mM KCl, 2 mM CaCl2, 1 mM MgCl2, 10 mM Hepes/NaOH; pH 7.4)±test compound to cells • 100 μl for 96-well plate; 50 μl for 384-well plate • 3. Incubate at ambient temperature (22-24° C.) for 35 min • 4. Remove assay buffer add it to a 96- or 384-well plate containing Microscint-20 • 96-well Plate: 100 μl buffer, 170 μl MicroScint 20 (for TopCount) • 384-well plate: 20 μl buffer, 50 μl Optiphiase (for MicroLux) • 5. Completely remove remaining assay buffer from cell plate • 6. Solubilize cells with 1% SDS; than add MicroScint or Optiphase • 96-well Plate: 30 μl SDS, 170 μl MicroScint 20 (for TopCount) • 384-well plate: 20 μl SDS, 50 μl Optiphiase (for MicroLux) • 7. Seal both cell and supernatant plates and count Data Calculation— […]
row,Compound,IC50 [nM]
1,"O=C1CN(CCc2ccc([N+](=O)[O-])cc2F)CCN1CCc1ccc([N+](=O)[O-])cc1 [Example 12, 4-[2-(2-Fluoro-4-nitrophenyl)ethyl]-1-[2-(4-nitrophenyl)ethyl]piperazin-2-one]",140
2,"N#Cc1ccc2c(c1)CCC(N1CCN(CCc3ccc4c(c3)CCOC4=O)CC1=O)C2 (racemic) [Example 42, 6-{2-Oxo-4-[2-(1-oxo-3,4-dihydro-1H-isochromen-6-yl)ethyl]piperazin-1-yl}-5,6,7,8-tetrahydronaphthalene-2-carbonitrile]",300
3,"O=C1CN(CCc2ccc([N+](=O)[O-])cc2C(F)(F)F)CCN1CCc1ccc([N+](=O)[O-])cc1 [Example 4, 1-[2-(4-Nitrophenyl)ethyl]-4-{2-[4-nitro-2-(trifluoromethyl)phenyl]ethyl}piperazin-2-one]",310
4,"N#Cc1ccc2c(c1)CCC(N1CCN(CCc3ccc4c(c3)COC4=O)CC1=O)C2 (racemic) [Example 26, 6-{2-Oxo-4-[2-(1-oxo-1,3-dihydro-2-benzofuran-5-yl)ethyl]piperazin-1-yl}-5,6,7,8-tetrahydronaphthalene-2-carbonitrile]",30
5,"N#Cc1ccc2c(c1)CCC(N1CCN([C@@H]3CCc4cc(C#N)ccc4C3)C(=O)C1)C2 (stereo partly drawn) [Example 17, (6R)-6,6′-(2-oxopiperazine-1,4-diyl)-di-(5,6,7,8-tetrahydronaphthalene-2-carbonitrile)]",70
6,"Cc1cc([N+](=O)[O-])ccc1CCN1CCN(CCc2ccc([N+](=O)[O-])cc2)C(=O)C1 [Example 19, 4-[2-(2-Methyl-4-nitrophenyl)ethyl]-1-[2-(4-nitrophenyl)ethyl]piperazin-2-one]",50
7,"N#Cc1ccc2c(c1)CCC(N1CCN(CCc3ccc4nonc4c3)C(=O)C1)C2 (racemic) [Example 14, 6-{4-[2-(2,1,3-Benzoxadiazol-5-yl)ethyl]-3-oxopiperazin-1-yl}-5,6,7,8-tetrahydronaphthalene-2-carbonitrile]",820
8,"N#Cc1ccc(CCN2CCN(CCc3ccc4c(c3)COC4=O)CC2=O)cc1Cl [Example 36, 2-Chloro-4-(2-{2-oxo-4-[2-(1-oxo-1,3-dihydro-2-benzofuran-5-yl)ethyl]piperazin-1-yl}ethyl)benzonitrile]",110
9,"O=C1CN(CCc2ccc([N+](=O)[O-])cc2)CCN1CCc1ccc([N+](=O)[O-])cc1 [Example 1, 1,4-bis[2-(4-nitrophenyl)ethyl]piperazin-2-one]",70
10,"N#Cc1ccc(CCN2CCN(C3CCc4cc(C#N)ccc4C3)C(=O)C2)cc1 (racemic) [Example 25, 6-{4-[2-(4-Cyanophenyl)ethyl]-2-oxopiperazin-1-yl}-5,6,7,8-tetrahydronaphthalene-2-carbonitrile]",240
11,"O=C1CN(CCc2ccc([N+](=O)[O-])c(F)c2)CCN1CCc1ccc([N+](=O)[O-])cc1 [Example 18, 4-[2-(3-Fluoro-4-nitrophenyl)ethyl]-1-[2-(4-nitrophenyl)ethyl]piperazin-2-one]",40

# Continued, values first:
row,IC50 [nM],Compound
1,140,"N#Cc1ccc2c(c1)CCCC2CN1CCN(CCc2ccc3c(c2)COC3=O)CC1=O (racemic) [Example 38, 5-({2-Oxo-4-[2-(1-oxo-1,3-dihydro-2-benzofuran-5-yl)ethyl]piperazin-1-yl}methyl)-5,6,7,8-tetrahydronaphthalene-2-carbonitrile]"
2,310,"Cc1c(CCN2CCN(C3CCc4cc(C#N)ccc4C3)C(=O)C2)ccc2c1COC2=O (racemic) [Example 30, 6-{4-[2-(4-Methyl-1-oxo-1,3-dihydro-2-benzofuran-5-yl)ethyl]-2-oxopiperazin-1-yl}-5,6,7,8-tetrahydronaphthalene-2-carbonitrile]"
3,80,"COc1cc([N+](=O)[O-])ccc1CCN1CCN(C2CCc3cc(C#N)ccc3C2)C(=O)C1 (racemic) [Example 9, 6-{4-[2-(2-Methoxy-4-nitrophenyl)ethyl]-2-oxopiperazin-1-yl}-5,6,7,8-tetrahydronaphthalene-2-carbonitrile]"
4,550,"O=C1CN(CCc2ccc([N+](=O)[O-])cc2)CCN1CCc1ccc2nonc2c1 [Example 24, 1-[2-(2,1,3-Benzoxadiazol-5-yl)ethyl]-4-[2-(4-nitrophenyl)ethyl]piperazin-2-one]"
5,130,"N#Cc1ccc2c(c1)CC(N1CCN(CCc3ccc4c(c3)COC4=O)CC1=O)C2 (racemic) [Example 44, 2-{2-Oxo-4-[2-(1-oxo-1,3-dihydro-2-benzofuran-5-yl)ethyl]piperazin-1-yl}-2,3-dihydro-1H-indene-5-carbonitrile]"
6,420,"O=C1OCc2cc(CCN3CCN(CCc4ccc5c(c4)COC5=O)C(=O)C3)ccc21 [Example 29, 1,4-Bis[2-(1-oxo-1,3-dihydro-2-benzofuran-5-yl)ethyl]piperazin-2-one]"
7,460,"COc1ccc(CCN2CCN(CCc3ccc4c(c3)COC4=O)C(=O)C2)cc1C#N [Example 32, 2-Methoxy-5-(2-{3-oxo-4-[2-(1-oxo-1,3-dihydro-2-benzofuran-5-yl)ethyl]piperazin-1-yl}ethyl)benzonitrile]"
8,910,"N#Cc1cc(CCN2CCN(CC(F)c3ccc4c(c3)COC4=O)CC2=O)ccc1F (racemic) [Example 39, 2-Fluoro-5-(2-{4-[2-fluoro-2-(1-oxo-1,3-dihydro-2-benzofuran-5-yl)ethyl]-2-oxopiperazin-1-yl}ethyl)benzonitrile]"
9,51,"N#Cc1ccc2c(c1)CCC(N1CCN(C3CCc4cc(C#N)ccc4C3)C(=O)C1)C2 (stereo not shown) [Example 15, 6,6′-(2-Oxopiperazine-1,4-diyl)di(5,6,7,8-tetrahydronaphthalene-2-carbonitrile)]"
10,100,"N#Cc1ccc2c(c1)CCC(N1CCN([C@H]3CCc4cc(C#N)ccc4C3)C(=O)C1)C2 (stereo partly drawn) [Example 16, (6S)-6,6′-(2-oxopiperazine-1,4-diyl)-di-(5,6,7,8-tetrahydronaphthalene-2-carbonitrile)]"
11,170,"COc1cc(CCN2CCN(CCc3ccc([N+](=O)[O-])cc3)C(=O)C2)ccc1[N+](=O)[O-] [Example 22, 4-[2-(3-Methoxy-4-nitrophenyl)ethyl]-1-[2-(4-nitrophenyl)ethyl]piperazin-2-one]"
12,870,"O=C1OCc2cc(CCN3CCN(CCc4ccc5nonc5c4)C(=O)C3)ccc21 [Example 27, 1-[2-(2,1,3-Benzoxadiazol-5-yl)ethyl]-4-[2-(1-oxo-1,3-dihydro-2-benzofuran-5-yl)ethyl]piperazin-2-one]"
13,170,"O=C1CN(CCc2ccc([N+](=O)[O-])c(F)c2)CCN1CCc1ccc2nonc2c1 [Example 20, 1-[2-(2,1,3-Benzoxadiazol-5-yl)ethyl]-4-[2-(3-fluoro-4-nitrophenyl)ethyl]piperazin-2-one]"
14,210,"N#Cc1ccc2c(c1)CCC(N1CCN(CCc3ccc4c(=O)occc4c3)CC1=O)C2 (racemic) [Example 43, 6-{2-Oxo-4-[2-(1-oxo-1H-isochromen-6-yl)ethyl]piperazin-1-yl}-5,6,7,8-tetrahydronaphthalene-2-carbonitrile]"
